# According to US8017828B2, “Utilization of rare sugars in plant or microorganism” (Shikoku Research Institute Incorporated, priority 2004, dated 2011):
# Legend:
# Phalaenopsis orchid = assay: Growth of Phalaenopsis orchid flask seedlings in tissue culture; type: in vivo; conditions: 0.005% in MS medium
# Experimental: (§1) Flask seedlings of Phalaenopsis orchid and Cymbidium obtained by tissue culture were used in an experiment.
# As for Phalaenopsis orchid, MS medium supplemented with D-psicose, D-glucose or D-fructose at a concentration of 0.005% (w/v) was used, and the flask seedlings were aseptically transplanted on Sep. 6, 2004. As for the number of seedlings, 4 seedlings were used for 1 test plot, and glass bottles with a capacity of 500 ml and having a hole with a diameter of about 1 cm for preventing dew condensation made in the upper region was used as culture containers. The cultivation was carried out in a culture chamber at 25° C. and 5,000 Lux (12-hour day length) Then, on Jan. 24, 2005, a survey was carried out with regard to the growth conditions of aerial part and underground part and the number of roots. The results are shown in Table 8 (effect of addition of D-psicose on the growth of seedlings of Phalaenopsis orchid).
# Cymbidium = assay: Growth of Cymbidium flask seedlings in tissue culture; type: in vivo; conditions: 0.005% in MS medium
# Description: as §1
# As for Cymbidium, in the same manner as the above Phalaenopsis orchid, MS medium supplemented with D-psicose, D-glucose, D-fructose or D-allose was used, and the flask seedlings were aseptically transplanted on Oct. 4, 2004. At this time, 4 or 5 leaves and 2 roots were left and the rest of them were cut off using a knife. As for the number of seedlings, 4 seedlings were used for 1 test plot, and glass bottles with a capacity of 900 ml and having a hole with a diameter of about 1 cm for preventing dew condensation made in the upper region was used as culture containers. The cultivation was carried out in a culture chamber at 25° C. and 5,000 Lux (12-hour day length) Then, on Feb. 1, 2005, a survey was carried out with regard to the growth conditions of aerial part and underground part, the number of roots and the number of lateral buds. The results are shown in Table 9 (effect of addition of rare sugar on the growth of seedlings of Cymbidium).
# [1] = system: Brassica rapa var. amplexicaulis (variety: “Haru Ichiban”); assay: Foliar spraying of sugar on Brassica rapa var. amplexicaulis; type: in vivo; conditions: 0.5% solution sprayed
# Description: Brassica rapa var. amplexicaulis is a vegetable in the Brassica family, and flower buds are harvested and used. As the same species of vegetables, broccoli, cauliflower and the like are exemplified, which are important horticultural crops. As for such a vegetable, development of flower buds has a large effect on the crop yield. Therefore, during the house cultivation of Brassica rapa var. amplexicaulis (variety: “Haru Ichiban”), foliar spraying of a sugar solution at a concentration of 0.5% (w/v) was carried out and effects on the growth and the development of flower buds were examined. The seeds of Brassica rapa var. amplexicaulis were sown in a 128-cell tray on Oct. 23, 2003 and raised for about 20 days. Then, the raised seedlings were transplanted for permanent planting with a planting distance of 40 cm on two rows with an inter row space of 50 cm in separate beds filled with soil for cultivation “Hana to Yasai no Tsuchi (garden soil for flowers and vegetables)” (Kurokawa Shubyo En) on Nov. 12, 2003. The cultivation was carried out by a simple fertigation system, and irrigation was carried out for 1 hour on a daily basis with a 2,000-fold dilution of Hyponex through an irrigation tube. The cultivation was carried out in a vinyl house without heating with side windows open. From Dec. 18, 2003, water or a 0.5% (w/v) sugar solution was sprayed onto the whole plant on a three times weekly basis. As for the types of sugars, D-glucose, D-fructose and D-psicose were used and five plants were cultivated for each test plot. On Feb. 23, 2004, three plants of medium size were harvested and a survey was carried out. The survey items were plant length, stem diameter, number of lateral buds, terminal bud weight, total weight of lateral buds and the like.
# Bletilla striata = assay: Growth and bulb formation of Bletilla striata seedlings in tissue culture; type: in vivo
# Experimental: Seedling plants of Bletilla striata obtained by sterile sowing were used in an experiment.
# As for the Bletilla striata, by using ½ strength MS medium supplemented with D-psicose, D-allose, D-glucose or D-frucose at a concentration of from 0.005% to 0.05% (w/v), the seedling plants were aseptically transplanted on Feb. 27, 2003, and then, cultivation was carried out under the same conditions as those of the strawberry in Example 3. Then, on Jun. 30, 2003, a survey was carried out with regard to the growth conditions of aerial part and underground part, the number of buds, the ratio of bulb formation, the bulb size and the like.
# [2] = system: Pythium ultimum IFO 32426 strain; assay: Oospore formation of Pythium ultimum in sugar solution; type: cell-based; conditions: 0.05% (w/v) sugar solution, 23° C., 4 days
# Experimental: With regard to Pythium ultimum that causes damping-off of spinach and the like, an effect of a rare sugar on oospore formation was examined.
# First, as the Pythium ultimum, IFO 32426 strain was used, and static culture thereof was carried out with 200 ml of V8 medium at 23° C. for 1 week. The resulting mycelial mat was well washed with sterile water and divided into 16 equal parts with forceps. This mycerial body was disentangled uniformly to form a small piece and immersed in 20 ml of a sugar solution at a concentration of 0.05% (w/v) and let stand at 23° C. for 4 days. […] Further, the same experiment was carried out using Pythium zingiberum IFO 30817 strain.
compound,measurement,setting,value
O=C(CO)[C@H](O)[C@H](O)[C@H](O)CO [D-psicose],Underground part weight,Phalaenopsis orchid; non 2.9,4.1 g
same,Aerial part weight,Phalaenopsis orchid; non 4.7,6.1 g
same,Number of roots,Phalaenopsis orchid; non 12.5,16.0 roots
same,Number of lateral buds,Cymbidium; non 0,0.5 buds
same,Aerial part weight,Cymbidium; non 2.1,2.0 g
same,Underground part weight,Cymbidium; non 3.8,4.1 g
same,Number of roots,Cymbidium; non 10.8,10.8 roots
same,Terminal bud weight,[1]; control (water) 3.0,8.8 g
same,Stem diameter,[1]; control (water) 22.8,26.9 mm
same,Number of lateral buds,[1]; control (water) 32.3,43.0
same,Plant length,[1]; control (water) 49.3,61.2 cm
same,Total weight of lateral buds,[1]; control (water) 235.3,225.0 g
same,growth when the concentration added to the medium was increased,Bletilla striata; increased (high) concentration in medium,the growth thereof was delayed
same,Aerial part weight,Bletilla striata; sugar 0.005% in medium,0.24 g
same,Bulb size,Bletilla striata; sugar 0.005% in medium,6.2 mm
same,Maximum plant length,Bletilla striata; sugar 0.005% in medium,9.3 cm
same,Maximum root length,Bletilla striata; sugar 0.005% in medium,4.4 cm
same,Number of buds,Bletilla striata; sugar 0.005% in medium,4.1
same,Number of leaves,Bletilla striata; sugar 0.005% in medium,3.9
same,Ratio of bulb formation,Bletilla striata; sugar 0.005% in medium,45%
same,Underground part weight,Bletilla striata; sugar 0.005% in medium,0.26 g
same,Aerial part weight,Bletilla striata; sugar 0.02% in medium,0.28 g
same,Bulb size,Bletilla striata; sugar 0.02% in medium,5.6 mm
same,Maximum plant length,Bletilla striata; sugar 0.02% in medium,9.9 cm
same,Maximum root length,Bletilla striata; sugar 0.02% in medium,4.8 cm
same,Number of buds,Bletilla striata; sugar 0.02% in medium,3.3
same,Number of leaves,Bletilla striata; sugar 0.02% in medium,3.9
same,Ratio of bulb formation,Bletilla striata; sugar 0.02% in medium,65%
same,Underground part weight,Bletilla striata; sugar 0.02% in medium,0.22 g
same,Aerial part weight,Bletilla striata; sugar 0.05% in medium,0.20 g
same,Bulb size,Bletilla striata; sugar 0.05% in medium,5.1 mm
same,Maximum plant length,Bletilla striata; sugar 0.05% in medium,7.3 cm
same,Maximum root length,Bletilla striata; sugar 0.05% in medium,5.3 cm
same,Number of buds,Bletilla striata; sugar 0.05% in medium,4.0
same,Number of leaves,Bletilla striata; sugar 0.05% in medium,3.9
same,Ratio of bulb formation,Bletilla striata; sugar 0.05% in medium,67%
same,Underground part weight,Bletilla striata; sugar 0.05% in medium,0.13 g
same,oospore formation,[2],inhibited
